Test results from patent US5668134A, “Method for preventing or reducing photosensitivity and/or phototoxicity reactions to medications” (priority 1994, dated 1997).
Counter-ions that a name gives are not always drawn.

What was measured:
[1] = test system: patients; experiment: Clinical trials, adverse events; type: in vivo, human
Text: Photosensitivity and/or phototoxicity reactions have been reported in clinical trials of lomefloxacin HCl to varying degrees. […] These photosensitivity and/or phototoxicity reactions have also occurred in subjects exposed to shaded or diffuse light, including exposure through glass.
In clinical trials, most of the adverse events reported were mild to moderate in severity and transient in nature. During these clinical investigations, 2869 patients received MAXAQUIN®. In 2.6% of the patients, lomefloxacin was discontinued because of adverse events, primarily involving the gastrointestinal system (0.7%), skin (1.0%), or central nervous system (0.5%). The adverse clinical events with the highest incidence (≥1%) in patients, regardless of relationship to drug, were nausea (3.7%), headache (3.2%), photosensitivity (2.4%), dizziness (2.3%), and diarrhea (1.4%).

[2] = Pharmacokinetics in renally impaired patients; type: in vivo, human; details: single doses
[3] = regardless of relationship to drug

CCn1cc(C(=O)O)c(=O)c2cc(F)c(N3CCNC(C)C3)c(F)c21 (racemic) [lomefloxacin HCl, monohydrochloride salt of (±)-1-ethyl-6,8-difluoro-1,4-dihydro-7-(3-methyl-1-piperazinyl)-4-oxo-3-quinolinecarboxylic acid]
discontinued because of adverse events ([1]; 2869 patients): 2.6% | discontinued because of adverse events, central nervous system ([1]; 2869 patients): 0.5% | discontinued because of adverse events, gastrointestinal system ([1]; 2869 patients): 0.7% | discontinued because of adverse events, skin ([1]; 2869 patients): 1.0% | incidence of photosensitivity ([1]; clinical trials): 2.4% | photosensitivity and/or phototoxic reactions ([1]; patients exposed to sunlight or artificial ultraviolet light): Moderate to severe photosensitivity and/or phototoxic reactions have occurred | incidence of diarrhea [1, 3]: 1.4% | incidence of dizziness [1, 3]: 2.3% | incidence of headache [1, 3]: 3.2% | incidence of nausea [1, 3]: 3.7% | peak concentrations versus renal function [2]: not affected by the degree of renal function
